Test results taken from patent US5306639A, “DNA encoding glucanase enzymes” (priority 1985, dated 1994).
Like-named read-outs stand apart in the source and are kept apart here.

How the values were obtained:
α-1,3 glucanase I = experiment: Effects of metallic ions and enzyme inhibitors on α-1,3 glucanase I; format: biochemical, Bacillus circulans BC-8
Experimental: (§1) Both α-1,3 glucanase I and II are inhibited by Fe^2+, Pb^2+, and […].
(§2) 0.1 ml of α-1,3 glucanase solution was added to 0.2 ml of 1.3-α-D glucan suspension (6 mg/ml, 50 mM phosphate buffer, pH 7.0), and the mixture was incubated for 16 hours at 40° C. The reaction was terminated by adding ethanol (final concentration was 60%), and amount of the sugar which had become soluble in this condition was determined by the phenol sulfuric acid method.
(§3) Under the above-mentioned reaction conditions, the enzyme activity which produced an amount of sugar soluble in 60% ethanol and corresponding to 100 nmol of glucose was defined as one unit. In practice, α-1,3 glucanase solutions of various concentrations were used for developing the standard curve, and the enzyme activity was read out on it.

dextranase = target: T1, dextranase (Arthrobacter sp., UniProt P39652); experiment: Effects of metallic ions and enzyme inhibitors on dextranase activity; format: biochemical, Arthrobacter sp. CB-8; settings: for inhibition of dextranase (in words): summary of Table 6; for activity at 1000 µM: read-out: Relative activity (%) of dextranase
T1 construct: the mature dextranase protein consisting of 591 amino acid residues; endogenous in cells; host or cells: Arthrobacter sp; CB-8 (FERM BP-995), enzyme purified from the culture
T1 sequence (P39652 50-640): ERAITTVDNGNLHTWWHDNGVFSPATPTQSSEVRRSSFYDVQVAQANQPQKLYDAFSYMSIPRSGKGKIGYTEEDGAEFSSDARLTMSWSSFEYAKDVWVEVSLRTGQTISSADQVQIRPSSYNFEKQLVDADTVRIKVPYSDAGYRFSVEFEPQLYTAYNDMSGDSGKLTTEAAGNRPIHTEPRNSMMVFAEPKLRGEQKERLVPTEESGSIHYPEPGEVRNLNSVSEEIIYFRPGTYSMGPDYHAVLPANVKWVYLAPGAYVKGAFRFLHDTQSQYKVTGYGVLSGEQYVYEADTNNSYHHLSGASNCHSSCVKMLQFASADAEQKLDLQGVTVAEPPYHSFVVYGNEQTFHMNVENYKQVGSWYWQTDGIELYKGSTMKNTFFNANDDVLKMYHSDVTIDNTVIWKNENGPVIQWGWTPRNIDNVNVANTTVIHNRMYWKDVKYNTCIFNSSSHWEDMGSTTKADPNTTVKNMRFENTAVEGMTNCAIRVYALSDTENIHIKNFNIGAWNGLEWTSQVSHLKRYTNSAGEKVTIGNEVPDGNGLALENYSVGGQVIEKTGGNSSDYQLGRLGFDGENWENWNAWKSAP
Experimental: 0.1 ml of the enzyme solution is added to 0.9 ml of 50 mM phosphate buffer, pH 6.5, containing 0.555% dextran (molecular weight: 10,000~20,000),and the mixture is incubated at 37° C. for 30 minutes. After the reaction is stopped, the amount of reducing sugar produced is measured by Somogyi-Nelson method. The enzymatic activity which increases a reducing power equivalent to 1 μ mole of glucose per 1 minute was defined as one unit.

α-1,3 glucanase II = experiment: Effects of metallic ions and enzyme inhibitors on α-1,3 glucanase II; format: biochemical, Bacillus circulans BC-8
Experimental: as §1, §2, §3

[1] = metallic ion or inhibitor 0.1 mM, none = 100
[2] = metallic ion or inhibitor 1 mM, none = 100

SMILES | inhibition of α-1,3 glucanase I enzymatic activity (α-1,3 glucanase I) | inhibition of α-1,3 glucanase II enzymatic activity (α-1,3 glucanase II) | Relative activity (%) of dextranase (dextranase; [2]) | other results
O=[N+]([O-])[O-].[Ag+] [AgNO3] | significant inhibition | significant inhibition | – | Relative activity (%) of dextranase (dextranase; [1]): 0%; inhibition of dextranase (in words) (dextranase): significantly inhibited
[Ca+2].[Cl-].[Cl-] [CaCl2] | – | – | 113% | –
O=S(=O)([O-])[O-].[Cu+2] [CuSO4] | – | – | – | Relative activity (%) of dextranase (dextranase; [1]): 7%; inhibition of dextranase (in words) (dextranase): significantly inhibited
O=C(O)CN(CCN(CC(=O)O)CC(=O)O)CC(=O)O [EDTA] | – | – | – | activity at 1000 µM (dextranase): 122%
[Cl][Fe][Cl] [FeCl2] | inhibited | inhibited | 115% | –
[Cl][Fe]([Cl])[Cl] [FeCl3] | – | – | 104% | –
[Cl][Hg][Cl] [HgCl2] | significant inhibition | significant inhibition | – | Relative activity (%) of dextranase (dextranase; [1]): 0%; inhibition of dextranase (in words) (dextranase): significantly inhibited
[Cl-].[K+] [KCl] | – | – | – | Relative activity (%) of dextranase (dextranase; metallic ion or inhibitor 10 mM, none = 100): 113%
O=S(=O)([O-])[O-].[Mg+2] [MgSO4] | – | – | 113% | –
[Cl][Mn][Cl] [MnCl2] | – | – | 77% | –
[Cl-].[Na+] [NaCl] | – | – | – | Relative activity (%) of dextranase (dextranase): 100%
[Cl][Pb][Cl] [PbCl2] | inhibited | inhibited | 103% | –
[Cl-].[Cl-].[Zn+2] [ZnCl2] | – | – | 77% | –
c1cnc2c(c1)ccc1cccnc12 [o-Phenanthroline] | – | – | – | activity at 1000 µM (dextranase; [2]): 100%
O=C(O)c1cc[c]([Hg][Cl])cc1 [pCMB, p-chloromercuribenzoic acid] | significant inhibition | significant inhibition | 29% | inhibition of dextranase (in words) (dextranase): inhibited strongly
